Assays:
[1] = cited from earlier work
[2] = water buffered at pH 7.2; cited from earlier work
[3] = cited from earlier work; remark: listed apart in the source
[4] = saturated solution in deionized water; cited from earlier work
[5] = stored at ambient conditions; cited from earlier work
[6] = system: C. auris blood-borne pathogens; assay: treating C. auris blood-borne pathogens (FIG. 2); set-up: species or system Candida auris; settings: blood-borne infection of C. auris
Text: FIG. 2 is a table showing the effectiveness of treating a blood-borne infection of C. auris using taurolidine and/or taurolidine derivatives.

Microbes = settings: microbes killed and toxins inactivated; cited from earlier work

O=S1(=O)CCN(CN2CCS(=O)(=O)NC2)CN1 [taurolidine, 4,4′-methylene-bis(tetrahydro-1,2,4-thiadiazine)-1,1,1′,1′,-tetraoxide]
cumulative dose shown safe and well tolerated ([1]; cumulative doses): > 300 g | systemic dose shown safe and well tolerated ([1]; systemic doses): exceeding 40 g/day | apparent partition coefficient between octanol and water [2]: approximately 0.13 | solubility in CHCl3 ([3]; CHCl3): insoluble | solubility in Dilute HCl ([3]; Dilute HCl): soluble | solubility in Dilute NaOH ([3]; Dilute NaOH): soluble | solubility in EtOH ([3]; EtOH): sparingly soluble | solubility in Water ([3]; Water, at 20 degrees C.): 1% | pH of saturated solution [4]: 7.4 | stability in the solid state [5]: acceptable stability | effect on C. auris blood-borne pathogens [6]: neutralize C. auris blood-borne pathogens | destruction time in vitro (Microbes): approximately 30 minutes

From patent US12016865B2, “Methods and pharmaceutical compositions for treating candida auris in blood” (Cormedix Inc., priority 2017, dated 2024)
